The text below walks through data of article PMC5218480 (PLoS ONE, 2017).

The experiment deals with MV-4-11 cells. The experiment can be described thus: Gene expression microarray analysis (Affymetrix PrimeView) and GSEA. More on the design: RFU PODN (11730768_x_at) / Fold change /veh PODN (11730768_x_at) / RFU LINC00158 (11744669_a_at) / Fold change /veh LINC00158 (11744669_a_at) / RFU DUSP10 (11751237_a_at) / Fold change /veh DUSP10 (11751237_a_at) / RFU ID3 (11757404_x_at) / Fold change /veh ID3 (11757404_x_at) / RFU PLEKHG5 (11737974_s_at) / Fold change /veh PLEKHG5 (11737974_s_at) / RFU LRRC4B (11730491_at) / Fold change /veh LRRC4B (11730491_at) / RFU GIMAP4 (11747438_a_at) / Fold change /veh GIMAP4 (11747438_a_at) / RFU KRT8 (11758183_x_at) / Fold change /veh KRT8 (11758183_x_at) / RFU CNN1 (11734310_a_at) / Fold change /veh CNN1 (11734310_a_at) / RFU VPS37D (11726825_at) / Fold change /veh VPS37D (11726825_at) / RFU C10orf10 (11716522_x_at) / Fold change /veh C10orf10 (11716522_x_at) / RFU KIR2DL2 /// KIR2DL4 /// KIR2DL5A /// KIR2DL5B /// KIR2DS1 /// KIR2DS2 /// KIR2DS3 /// KIR2DS4 /// KIR3DL3 /// KIR3DL3 /// KIR3DS1 (11738374_at) / Fold change /veh KIR2DL2 /// KIR2DL4 /// KIR2DL5A /// KIR2DL5B /// KIR2DS1 /// KIR2DS2 /// KIR2DS3 /// KIR2DS4 /// KIR3DL3 /// KIR3DL3 /// KIR3DS1 (11738374_at) / RFU C1QL1 (11718748_at) / Fold change /veh C1QL1 (11718748_at) / RFU TMPRSS4 (11747572_a_at) / Fold change /veh TMPRSS4 (11747572_a_at) / RFU HAMP (11756126_x_at) / Fold change /veh HAMP (11756126_x_at) / RFU RNFT2 (11725882_a_at) / Fold change /veh RNFT2 (11725882_a_at) / RFU NR4A2 (11747474_a_at) / Fold change /veh NR4A2 (11747474_a_at) / RFU ABCC12 (11746883_a_at) / Fold change /veh ABCC12 (11746883_a_at) / RFU TMEM136 (11760407_x_at) / Fold change /veh TMEM136 (11760407_x_at) / RFU CLDN22 /// WWC2 (11732394_at) / Fold change /veh CLDN22 /// WWC2 (11732394_at) / RFU HLA-DPB1 (11760878_x_at) / Fold change /veh HLA-DPB1 (11760878_x_at) / RFU SPINT1 (11716480_a_at) / Fold change /veh SPINT1 (11716480_a_at) / RFU GAP43 (11754022_s_at) / Fold change /veh GAP43 (11754022_s_at) / RFU A4GNT (11735810_at) / Fold change /veh A4GNT (11735810_at) / RFU PRB3 (11715151_x_at) / Fold change /veh PRB3 (11715151_x_at) / RFU TUBB4B (11761932_at) / Fold change /veh TUBB4B (11761932_at) / RFU CAPN14 (11732068_a_at) / Fold change /veh CAPN14 (11732068_a_at) / RFU TMCC2 (11721928_a_at) / Fold change /veh TMCC2 (11721928_a_at) / RFU IRGQ (11745062_a_at) / Fold change /veh IRGQ (11745062_a_at) / RFU FAM174B (11720279_a_at) / Fold change /veh FAM174B (11720279_a_at) / RFU TMPRSS4 (11748680_a_at) / Fold change /veh TMPRSS4 (11748680_a_at) / RFU FAM212B (11763350_a_at) / Fold change /veh FAM212B (11763350_a_at) / RFU PLEKHG5 (11743358_a_at) / Fold change /veh PLEKHG5 (11743358_a_at) / RFU ZSCAN30 (11745921_a_at) / Fold change /veh ZSCAN30 (11745921_a_at) / RFU CMKLR1 (11741424_a_at) / Fold change /veh CMKLR1 (11741424_a_at) / RFU LOC101060620 /// MAPK8IP1 (11723275_at) / Fold change /veh LOC101060620 /// MAPK8IP1 (11723275_at) / RFU SPTSSB (11747773_x_at) / Fold change /veh SPTSSB (11747773_x_at) / RFU PRSS12 (11739890_at) / Fold change /veh PRSS12 (11739890_at) / RFU BIN1 (11741810_x_at) / Fold change /veh BIN1 (11741810_x_at) / RFU WNT11 (11732464_a_at) / Fold change /veh WNT11 (11732464_a_at) / RFU C10orf10 (11716521_a_at) / Fold change /veh C10orf10 (11716521_a_at) / RFU C5orf56 (11738089_at) / Fold change /veh C5orf56 (11738089_at) / RFU CYB561 (11721691_x_at) / Fold change /veh CYB561 (11721691_x_at) / RFU ANKRD19P (11752326_a_at) / Fold change /veh ANKRD19P (11752326_a_at) / RFU OR2T12 /// OR2T33 /// OR2T8 (11738714_s_at) / Fold change /veh OR2T12 /// OR2T33 /// OR2T8 (11738714_s_at) / RFU VCAN (11748164_a_at) / Fold change /veh VCAN (11748164_a_at) / RFU JSRP1 (11732532_at) / Fold change /veh JSRP1 (11732532_at) / RFU KRTAP10-11 (11738290_x_at) / Fold change /veh KRTAP10-11 (11738290_x_at) / RFU MYO3A (11730013_a_at) / Fold change /veh MYO3A (11730013_a_at) / RFU EBF3 (11725865_a_at) / Fold change /veh EBF3 (11725865_a_at) / RFU CAMK2N1 (11719241_x_at) / Fold change /veh CAMK2N1 (11719241_x_at) / RFU C5orf56 (11738088_a_at) / Fold change /veh C5orf56 (11738088_a_at) / RFU OLFML3 (11715873_a_at) / Fold change /veh OLFML3 (11715873_a_at) / RFU LOC100653217 /// NTM (11731650_a_at) / Fold change /veh LOC100653217 /// NTM (11731650_a_at) / RFU MAPK11 (11762145_a_at) / Fold change /veh MAPK11 (11762145_a_at) / RFU FIZ1 (11724087_x_at) / Fold change /veh FIZ1 (11724087_x_at) / RFU OASL (11726364_x_at) / Fold change /veh OASL (11726364_x_at) / RFU SOX15 (11748057_x_at) / Fold change /veh SOX15 (11748057_x_at) / RFU CD79A (11719716_a_at) / Fold change /veh CD79A (11719716_a_at) / RFU HIST1H1D (11736915_at) / Fold change /veh HIST1H1D (11736915_at) / RFU CASKIN2 (11723855_a_at) / Fold change /veh CASKIN2 (11723855_a_at) / RFU LOC730098 (11760151_x_at) / Fold change /veh LOC730098 (11760151_x_at) / RFU OR4N2 (11742367_at) / Fold change /veh OR4N2 (11742367_at) / RFU PRRT2 (11749266_a_at) / Fold change /veh PRRT2 (11749266_a_at) / RFU SNX32 (11753110_a_at) / Fold change /veh SNX32 (11753110_a_at) / RFU CDHR5 (11726645_a_at) / Fold change /veh CDHR5 (11726645_a_at) / RFU RCAN1 (11760418_a_at) / Fold change /veh RCAN1 (11760418_a_at) / RFU FAM167A (11723789_a_at) / Fold change /veh FAM167A (11723789_a_at) / RFU FAM26E (11764081_at) / Fold change /veh FAM26E (11764081_at) / RFU ISYNA1 (11749810_s_at) / Fold change /veh ISYNA1 (11749810_s_at) / RFU ACY1 (11761880_at) / Fold change /veh ACY1 (11761880_at) / RFU 11764098_at / Fold change /veh 11764098_at / RFU SAMD14 (11745864_x_at) / Fold change /veh SAMD14 (11745864_x_at) / RFU NPB (11741838_a_at) / Fold change /veh NPB (11741838_a_at) / RFU TMPRSS6 (11731388_a_at) / Fold change /veh TMPRSS6 (11731388_a_at) / RFU KRTAP10-2 (11738614_at) / Fold change /veh KRTAP10-2 (11738614_at) / RFU ARHGAP8 /// PRR5-ARHGAP8 (11727945_x_at) / Fold change /veh ARHGAP8 /// PRR5-ARHGAP8 (11727945_x_at) / RFU KRTAP5-7 /// NADSYN1 (11734609_at) / Fold change /veh KRTAP5-7 /// NADSYN1 (11734609_at) / RFU RASL12 (11751679_a_at) / Fold change /veh RASL12 (11751679_a_at) / RFU CDKN2B (11736163_a_at) / Fold change /veh CDKN2B (11736163_a_at) / RFU PRF1 (11729649_at) / Fold change /veh PRF1 (11729649_at) / RFU, ZNF638 /// ZNF638-IT1 / Fold change vs veh, ZNF638 /// ZNF638-IT1 / RFU, PANK3 / Fold change vs veh, PANK3 / RFU, SH3YL1 / Fold change vs veh, SH3YL1 / RFU, ZEB2 / Fold change vs veh, ZEB2 / RFU, NRIP1 / Fold change vs veh, NRIP1 / RFU, PTTG1IP / Fold change vs veh, PTTG1IP / RFU, CAPN2 / Fold change vs veh, CAPN2 / RFU, MED14 / Fold change vs veh, MED14 / RFU, SNORA58 / Fold change vs veh, SNORA58 / RFU, C1orf63 / Fold change vs veh, C1orf63 / RFU, LRRFIP1 / Fold change vs veh, LRRFIP1 / RFU, NDUFAF7 / Fold change vs veh, NDUFAF7 / RFU, SLC12A2 / Fold change vs veh, SLC12A2 / RFU, IBTK / Fold change vs veh, IBTK / RFU, ESF1 / Fold change vs veh, ESF1 / Fold change vs veh, TMEM50B / RFU, TAOK1 / Fold change vs veh, TAOK1 / RFU, ACBD3 / Fold change vs veh, ACBD3 / RFU, TMA16 / Fold change vs veh, TMA16 / RFU, RWDD3 / Fold change vs veh, RWDD3 / RFU, BCAT1 / Fold change vs veh, BCAT1 / RFU, EDEM3 / Fold change vs veh, EDEM3 / RFU, TMEM33 / Fold change vs veh, TMEM33 / RFU, WDR75 / Fold change vs veh, WDR75 / RFU, AHCTF1 / Fold change vs veh, AHCTF1 / RFU, TFRC / Fold change vs veh, TFRC / RFU, ZDHHC17 / Fold change vs veh, ZDHHC17 / RFU, NOM1 / Fold change vs veh, NOM1 / RFU, ARL8B / Fold change vs veh, ARL8B / RFU, ZBTB11 / Fold change vs veh, ZBTB11 / RFU, TAMM41 / Fold change vs veh, TAMM41 / RFU, KIAA1704 /// LOC100996395 / Fold change vs veh, KIAA1704 /// LOC100996395 / RFU, ING1 / Fold change vs veh, ING1 / RFU, TRMT61B / Fold change vs veh, TRMT61B / RFU, FUBP3 / Fold change vs veh, FUBP3 / RFU, TP53 / Fold change vs veh, TP53 / RFU, TNKS2 / Fold change vs veh, TNKS2 / RFU, ZFP14 / Fold change vs veh, ZFP14 / RFU, ACTR2 / Fold change vs veh, ACTR2 / RFU, PPP3R1 / Fold change vs veh, PPP3R1 / RFU, PIK3R1 / Fold change vs veh, PIK3R1 / RFU, HNRNPA1 / Fold change vs veh, HNRNPA1 / RFU, RNF170 / Fold change vs veh, RNF170 / RFU, ZNF28 / Fold change vs veh, ZNF28 / RFU, RNGTT / Fold change vs veh, RNGTT / RFU, OGT / Fold change vs veh, OGT / RFU, BRD1 / Fold change vs veh, BRD1 / RFU, MARS / Fold change vs veh, MARS / RFU, ZNF655 / Fold change vs veh, ZNF655 / RFU, FAHD1 / Fold change vs veh, FAHD1 / RFU, BDP1 / Fold change vs veh, BDP1 / RFU, LRRCC1 / Fold change vs veh, LRRCC1 / RFU, ARID1A / Fold change vs veh, ARID1A / RFU, ZNF146 / Fold change vs veh, ZNF146 / RFU, ZNF330 / Fold change vs veh, ZNF330 / RFU, GPN3 / Fold change vs veh, GPN3 / RFU, C9orf123 / Fold change vs veh, C9orf123 / RFU, N4BP2L2 / Fold change vs veh, N4BP2L2 / RFU, ARFIP1 / Fold change vs veh, ARFIP1 / RFU, FAM179B / Fold change vs veh, FAM179B / RFU, BCL10 / Fold change vs veh, BCL10 / RFU, UHRF1BP1L / Fold change vs veh, UHRF1BP1L / RFU, BET1 / Fold change vs veh, BET1 / RFU, CNOT2 / Fold change vs veh, CNOT2 / RFU, ZNF268 / Fold change vs veh, ZNF268 / Fold change vs veh, ZNF507 / RFU, DGCR2 / Fold change vs veh, DGCR2 / RFU, WDSUB1 / Fold change vs veh, WDSUB1 / Fold change vs veh, HSP90B1 /// MIR3652 / RFU, ADSS / Fold change vs veh, ADSS / RFU, GK / Fold change vs veh, GK / RFU, ZNF148 / Fold change vs veh, ZNF148 / RFU, TAF9 / Fold change vs veh, TAF9 / RFU, SLC1A5 / Fold change vs veh, SLC1A5 / RFU, SLMO2 / Fold change vs veh, SLMO2 / RFU, ABCC4 / Fold change vs veh, ABCC4 / RFU, LOC101060439 /// RAP1B / Fold change vs veh, LOC101060439 /// RAP1B / RFU, RFX7 / Fold change vs veh, RFX7 / RFU, GTPBP10 / Fold change vs veh, GTPBP10 / RFU, CNEP1R1 / Fold change vs veh, CNEP1R1 / RFU, BIVM-ERCC5 /// ERCC5 / Fold change vs veh, BIVM-ERCC5 /// ERCC5 / RFU, ILF3 / Fold change vs veh, ILF3 / RFU 11762660_at / Fold change /veh 11762660_at / RFU VCAN (11757783_s_at) / Fold change /veh VCAN (11757783_s_at) / RFU DDX43 (11728927_at) / Fold change /veh DDX43 (11728927_at) / RFU KRT8 (11758188_x_at) / Fold change /veh KRT8 (11758188_x_at) / RFU NKD1 (11759106_at) / Fold change /veh NKD1 (11759106_at) / RFU SRD5A1 (11742802_a_at) / Fold change /veh SRD5A1 (11742802_a_at) / RFU TPSAB1 /// TPSB2 (11721975_s_at) / Fold change /veh TPSAB1 /// TPSB2 (11721975_s_at) / RFU GSTM3 (11746129_a_at) / Fold change /veh GSTM3 (11746129_a_at) / RFU IL23R (11737362_x_at) / Fold change /veh IL23R (11737362_x_at) / RFU TMEM51 (11727254_a_at) / Fold change /veh TMEM51 (11727254_a_at) / RFU PIWIL2 (11732686_x_at) / Fold change /veh PIWIL2 (11732686_x_at) / RFU ORM1 (11744905_x_at) / Fold change /veh ORM1 (11744905_x_at) / RFU CCDC152 (11743942_at) / Fold change /veh CCDC152 (11743942_at) / RFU ECM1 (11717891_a_at) / Fold change /veh ECM1 (11717891_a_at) / RFU IL23R (11748794_a_at) / Fold change /veh IL23R (11748794_a_at) / RFU TNFAIP8L3 (11732012_x_at) / Fold change /veh TNFAIP8L3 (11732012_x_at) / RFU MBOAT4 (11741988_at) / Fold change /veh MBOAT4 (11741988_at) / RFU 11764193_at / Fold change /veh 11764193_at / RFU TMEM53 (11763286_at) / Fold change /veh TMEM53 (11763286_at) / RFU MAGEB2 (11727129_at) / Fold change /veh MAGEB2 (11727129_at) / RFU TMEM200A (11744735_a_at) / Fold change /veh TMEM200A (11744735_a_at) / RFU CCDC152 (11751479_a_at) / Fold change /veh CCDC152 (11751479_a_at) / RFU FAM211A (11726209_a_at) / Fold change /veh FAM211A (11726209_a_at) / RFU RGS16 (11746705_a_at) / Fold change /veh RGS16 (11746705_a_at) / RFU VCAN (11755009_s_at) / Fold change /veh VCAN (11755009_s_at) / RFU RHOB (11743442_s_at) / Fold change /veh RHOB (11743442_s_at) / RFU RGS16 (11720943_a_at) / Fold change /veh RGS16 (11720943_a_at) / RFU RGS16 (11720944_at) / Fold change /veh RGS16 (11720944_at) / RFU, VPS4B / Fold change vs veh, VPS4B / RFU, CREB1 / Fold change vs veh, CREB1 / RFU, DNAJC13 / Fold change vs veh, DNAJC13 / RFU, GNAQ / Fold change vs veh, GNAQ / RFU, CDK5R1 / Fold change vs veh, CDK5R1 / RFU, ZRANB3 / Fold change vs veh, ZRANB3 / RFU, CUL4A / Fold change vs veh, CUL4A / RFU, CCNY / Fold change vs veh, CCNY / RFU, UFL1 / Fold change vs veh, UFL1 / RFU, COG3 / Fold change vs veh, COG3 / RFU, DIAPH2 / Fold change vs veh, DIAPH2 / RFU, SKA2 / Fold change vs veh, SKA2 / RFU, AFF3 / Fold change vs veh, AFF3 / RFU, LMF1 / Fold change vs veh, LMF1 / RFU, IPO11 / Fold change vs veh, IPO11 / RFU, DFFB / Fold change vs veh, DFFB / RFU, FOXP1 / Fold change vs veh, FOXP1 / RFU, CARD8 / Fold change vs veh, CARD8 / RFU, STRN3 / Fold change vs veh, STRN3 / RFU, ADK / Fold change vs veh, ADK / RFU, RASSF2 / Fold change vs veh, RASSF2 / RFU, WIPF1 / Fold change vs veh, WIPF1 / RFU, LARP1B / Fold change vs veh, LARP1B / RFU, RASA1 / Fold change vs veh, RASA1 / RFU, RB1 / Fold change vs veh, RB1 / RFU, PPFIA1 / Fold change vs veh, PPFIA1 / RFU, MAT2A / Fold change vs veh, MAT2A / RFU, CCT5 / Fold change vs veh, CCT5 / RFU, WDR92 / Fold change vs veh, WDR92 / RFU, CUX1 / Fold change vs veh, CUX1 / RFU, TTC7A / Fold change vs veh, TTC7A / RFU, TMEM135 / Fold change vs veh, TMEM135 / RFU, DEPTOR / Fold change vs veh, DEPTOR / RFU, CPM / Fold change vs veh, CPM / RFU, DNAJB6 / Fold change vs veh, DNAJB6 / RFU, CACNA2D3 / Fold change vs veh, CACNA2D3 / RFU, DTX4 / Fold change vs veh, DTX4 / RFU, TFCP2 / Fold change vs veh, TFCP2 / RFU, GMCL1 /// GMCL1P1 / Fold change vs veh, GMCL1 /// GMCL1P1 / RFU, AEBP2 / Fold change vs veh, AEBP2 / RFU, SNHG1 /// SNORD22 /// SNORD25 /// SNORD26 /// SNORD27 /// SNORD28 /// SNORD29 /// SNORD31 / Fold change vs veh, SNHG1 /// SNORD22 /// SNORD25 /// SNORD26 /// SNORD27 /// SNORD28 /// SNORD29 /// SNORD31 / Fold change (Aza/veh), C12orf56 (ProbeSet 11735607_a_at) / Fold change (ACY-1035/veh), C12orf56 (ProbeSet 11735607_a_at) / Fold change (Aza/veh), FGFR1OP (ProbeSet 11751329_s_at) / Fold change (ACY-1035/veh), FGFR1OP (ProbeSet 11751329_s_at) / Fold change (Aza/veh), VPS36 (ProbeSet 11739960_a_at) / Fold change (ACY-1035/veh), VPS36 (ProbeSet 11739960_a_at) / RFU SYPL1 (11715823_x_at) / Fold change /veh SYPL1 (11715823_x_at) / RFU IGFBP7 (11715501_s_at) / Fold change /veh IGFBP7 (11715501_s_at) / RFU REEP3 (11722064_at) / Fold change /veh REEP3 (11722064_at) / RFU IGLL1 (11728026_x_at) / Fold change /veh IGLL1 (11728026_x_at): dose or concentration left out as unconfirmed. Conditions: MV-4-11 cells, 48 hours. Type of experiment: cell-based, human.

For the compound `Nc1ncn([C@@H]2O[C@H](CO)[C@@H](O)[C@H]2O)c(=O)n1` [azacitidine], the “RFU FAM212B (11763350_a_at)” value is recorded as 32.55 RFU.
